Measurements published in patent US20230093861A1, “RAPAMYCIN ANALOGS AS MTOR INHIBITORS” (Revolution Medicines, Inc., priority 2017, published 2023).
Where two headings read alike, the source gives them in different places.

How the values were obtained:
[1] = tested on: P-P70S6K (T389); test: Cell based AlphaLISA assay, inhibition of P-P70S6K (T389) (mTORC1 substrate phosphorylation) in MDA-MB-468 cells; conditions: Homo sapiens, 4 h, AlphaLISA, two to four hours at 37° C., read-out: pIC50 for Inhibition of mTORC1 and mTORC2 Substrate Phosphorylation, P-P70S6K-(T389) (converted)
Procedure, shortened: (§1)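 IC50s come from control-normalized curve fits of duplicate Alpha signals. Cell lysates were probed with SureFire Ultra kits for mTORC1 substrates 4E-BP1 T37/46 and P70S6K T389 and mTORC2 substrate Akt S473 in MDA-MB-468 cells exposed to inhibitor.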

[2] = tested on: P-4E-BP1 (T37/46); test: Cell based AlphaLISA assay, inhibition of P-4E-BP1 (T37/46) (mTORC1 substrate phosphorylation) in MDA-MB-468 cells; conditions: Homo sapiens, AlphaLISA, two to four hours at 37° C., read-out: pIC50 for Inhibition of mTORC1 and mTORC2 Substrate Phosphorylation, P-4E-BP1-(T37/46) (converted)
Procedure, shortened: as §1

[3] = tested on: P-Akt (S473); test: Cell based AlphaLISA assay, inhibition of P-Akt (S473) (mTORC2 substrate phosphorylation) in MDA-MB-468 cells; conditions: Homo sapiens, AlphaLISA, two to four hours at 37° C., read-out: pIC50 for Inhibition of mTORC1 and mTORC2 Substrate Phosphorylation, p-AKT 1/2/3 -(S473) (converted)
Procedure, shortened: as §1

SMILES | IC50 [1] [nM] | IC50 ([2]; MDA-MB-468, 4 h) [nM] | IC50 ([3]; MDA-MB-468, 4 h) [nM] | IC50 ([2]; 4 h) [nM] | IC50 ([3]; 4 h) [nM]
CO[C@H]1C[C@@H]2CC[C@@H](C)[C@@](O)(O2)C(=O)C(=O)N2CCCC[C@H]2C(=O)O[C@H]([C@H](C)C[C@@H]2CC[C@H](n3cc(-c4cnc(N5CCN(c6ncc(C(=O)NCCOCCOCCOCCC(=O)NCCCCn7nc(-c8ccc9oc(N)nc9c8)c8c(N)ncnc87)cn6)CC5)nc4)nn3)[C@H](OC)C2)CC(=O)[C@H](C)/C=C(\C)[C@@H](O)[C@@H](OC)C(=O)[C@H](C)C[C@H](C)/C=C/C=C/C=C/1C [Example 113] | < 1 | < 3.16 | 3.16 to 31.6 | – | –
CO[C@H]1C[C@@H]2CC[C@@H](C)[C@@](O)(O2)C(=O)C(=O)N2CCCC[C@H]2C(=O)O[C@H]([C@H](C)C[C@@H]2CC[C@@H](OCCCCc3cn(CCOCCOCCOCCOCCOCCOCCOCCOCCC(=O)NCCCCn4nc(-c5ccc6oc(N)nc6c5)c5c(N)ncnc54)nn3)[C@H](OC)C2)C[C@@H](OC)[C@H](C)/C=C(\C)[C@@H](O)[C@@H](OC)C(=O)[C@H](C)C[C@H](C)/C=C/C=C/C=C/1C [Example 77] | < 1 | < 3.16 | 3.16 to 31.6 | – | –
CO[C@H]1C[C@@H]2CC[C@@H](C)[C@@](O)(O2)C(=O)C(=O)N2CCCC[C@H]2C(=O)O[C@H]([C@H](C)C[C@@H]2CC[C@H](n3cc(COC(=O)NCCOCCOCCOCCC(=O)NCCOCCOCCC(=O)NCCCCn4nc(-c5ccc6oc(N)nc6c5)c5c(N)ncnc54)nn3)[C@H](OC)C2)C[C@@H](OC)[C@H](C)/C=C(\C)[C@@H](O)[C@@H](OC)C(=O)[C@H](C)C[C@H](C)/C=C/C=C/C=C/1C [Example 143] | 1 to 10 | 31.6 to 1000 | > 1000 | – | –
CO/N=C1/C[C@@H]([C@H](C)C[C@@H]2CC[C@H](n3cc(CCCC(=O)NCCOCCOCCOCCC(=O)NCCOCCOCCOCCC(=O)NCCCCn4nc(-c5cc6cc(O)ccc6[nH]5)c5c(N)ncnc54)nn3)[C@H](OC)C2)OC(=O)[C@@H]2CCCCN2C(=O)C(=O)[C@]2(O)O[C@@H](CC[C@H]2C)C[C@H](OC)/C(C)=C/C=C/C=C/[C@@H](C)C[C@@H](C)C(=O)[C@H](OC)[C@H](O)/C(C)=C/[C@H]1C [Example 172] | 10 to 1000 | > 1000 | > 1000 | – | –
CO[C@H]1C[C@@H]2CC[C@@H](C)[C@@](O)(O2)C(=O)C(=O)N2CCCC[C@H]2C(=O)O[C@H]([C@H](C)C[C@@H]2CC[C@H](n3cc(COC(=O)NCCOCCOCCOCCC(=O)NCCOCCOCCOCCC(=O)NCCCCn4nc(-c5ccc6oc(N)nc6c5)c5c(N)ncnc54)nn3)[C@H](OC)C2)C/C(=N/OCc2ccccc2)[C@H](C)/C=C(\C)[C@@H](O)[C@@H](OC)C(=O)[C@H](C)C[C@H](C)/C=C/C=C/C=C/1C [Example 156] | > 1000 | > 1000 | > 1000 | – | –
CO[C@H]1C[C@@H]2CC[C@@H](C)[C@@](O)(O2)C(=O)C(=O)N2CCCC[C@H]2C(=O)O[C@H]([C@H](C)C[C@@H]2CC[C@@H](OCCCCc3cn(CCOCCOCCOCCOCCOCCOCCOCCOCCC(=O)N4CCc5cc(Cn6nc(-c7ccc8oc(N)nc8c7)c7c(N)ncnc76)ccc5C4)nn3)[C@H](OC)C2)C[C@@H](OC)[C@H](C)/C=C(\C)[C@@H](O)[C@@H](OC)C(=O)[C@H](C)C[C@H](C)/C=C/C=C/C=C/1C [Example 92] | < 1 | – | – | 3.16 to 31.6 | 31.6 to 1000
CO[C@H]1C[C@@H]2CC[C@@H](C)[C@@](O)(O2)C(=O)C(=O)N2CCCC[C@H]2C(=O)O[C@H]([C@H](C)C[C@@H]2CC[C@@H](O)[C@H](OC)C2)C[C@@H](OC)[C@H](C)/C=C(\C)[C@@H](O)[C@@H](OC)C(=NOCc2cn(CCOCCOCCOCCOCCOCCNC(=O)CCC(=O)NCCCCn3nc(-c4ccc5oc(N)nc5c4)c4c(N)ncnc43)nn2)[C@H](C)C[C@H](C)/C=C/C=C/C=C/1C [Example 105] | 1 to 10 | 3.16 to 31.6 | 31.6 to 1000 | – | –
CO[C@H]1C[C@@H]2CC[C@@H](C)[C@@](O)(O2)C(=O)C(=O)N2CCCC[C@H]2C(=O)O[C@H]([C@H](C)C[C@@H]2CC[C@H](n3cc(CCCC(=O)N(C)CCOCCOCCOCCC(=O)N(C)CCOCCOCCC(=O)N(C)CCCCn4nc(-c5ccc6oc(N)nc6c5)c5c(N)ncnc54)nn3)[C@H](OC)C2)CC(=O)[C@H](C)/C=C(\C)[C@@H](O)[C@@H](OC)C(=O)[C@H](C)C[C@H](C)/C=C/C=C/C=C/1C [Example 180] | 1 to 10 | > 1000 | > 1000 | – | –
CO[C@H]1C[C@@H]2CC[C@@H](C)[C@@](O)(O2)C(=O)C(=O)N2CCCC[C@H]2C(=O)O[C@H]([C@H](C)C[C@@H]2CC[C@@H](O)[C@H](OC)C2)C[C@@H](O)[C@H](C)/C=C(\C)[C@@H](O)[C@@H](OC)C(=NOCc2cn(-c3cnc(N4CCN(c5ncc(C(=O)NCCOCCC(=O)NCCCCn6nc(-c7ccc8oc(N)nc8c7)c7c(N)ncnc76)cn5)CC4CO)nc3)nn2)[C@H](C)C[C@H](C)/C=C/C=C/C=C/1C (stereo partly drawn) [Example 194] | < 1 | > 1000 | > 1000 | – | –
CCO[C@@H]1C[C@@H]([C@H](C)C[C@@H]2CC[C@H](n3cc(CCCC(=O)NCCOCCOCCOCCC(=O)NCCOCCOCCOCCC(=O)NCCCCn4nc(-c5ccc6oc(N)nc6c5)c5c(N)ncnc54)nn3)[C@H](OC)C2)OC(=O)[C@@H]2CCCCN2C(=O)C(=O)[C@]2(O)O[C@@H](CC[C@H]2C)C[C@H](OC)/C(C)=C/C=C/C=C/[C@@H](C)C[C@@H](C)C(=O)[C@H](OC)[C@H](O)/C(C)=C/[C@H]1C [Example 167] | 1 to 10 | 31.6 to 1000 | 31.6 to 1000 | – | –
COc1cccc2cc(-c3nc([C@H]4CC[C@H](C(=O)NCCOCCOCCNC(=O)CCOCCOCCOCCOCCn5cc(CCCCO[C@@H]6CC[C@@H](C[C@@H](C)[C@@H]7CC(=O)[C@H](C)/C=C(\C)[C@@H](O)[C@@H](OC)C(=O)[C@H](C)C[C@H](C)/C=C/C=C/C=C(\C)[C@@H](OC)C[C@@H]8CC[C@@H](C)[C@@](O)(O8)C(=O)C(=O)N8CCCC[C@H]8C(=O)O7)C[C@H]6OC)nn5)CC4)n4ncnc(N)c34)[nH]c12 [Example 187] | < 1 | < 3.16 | 3.16 to 31.6 | – | –
CO[C@H]1C[C@@H]2CC[C@@H](C)[C@@](O)(O2)C(=O)C(=O)N2CCCC[C@H]2C(=O)O[C@H]([C@H](C)C[C@@H]2CC[C@H](n3cc(COC(=O)NCCOCCOCCOCCOCCC(=O)NCc4cnc(N5CCN(c6ncc(C(=O)NCCCCn7nc(-c8ccc9oc(N)nc9c8)c8c(N)ncnc87)cn6)CC5)nc4)nn3)[C@H](OC)C2)CC(=O)[C@H](C)/C=C(\C)[C@@H](O)[C@@H](OC)C(=O)[C@H](C)C[C@H](C)/C=C/C=C/C=C/1C [Example 185] | < 1 | < 3.16 | 3.16 to 31.6 | – | –
CO[C@H]1C[C@@H]2CC[C@@H](C)[C@@](O)(O2)C(=O)C(=O)N2CCCC[C@H]2C(=O)O[C@H]([C@H](C)C[C@@H]2CC[C@H](n3cc(CCCC(=O)NCCOCCOCCOCCC(=O)NCCOCCOCCOCCOCCC(=O)NCCCCn4nc(-c5ccc6oc(N)nc6c5)c5c(N)ncnc54)nn3)[C@H](OC)C2)CC(=O)[C@H](C)/C=C(\C)[C@@H](O)[C@@H](OC)C(=O)[C@H](C)C[C@H](C)/C=C/C=C/C=C/1C [Example 132] | 1 to 10 | 3.16 to 31.6 | 31.6 to 1000 | – | –
COC(=O)NC1C[C@@H]2CC[C@@H](C)[C@@](O)(O2)C(=O)C(=O)N2CCCC[C@H]2C(=O)O[C@H]([C@H](C)C[C@@H]2CC[C@@H](OCCCCc3cn(CCOCCOCCOCCOCCOCCOCCOCCOCCC(=O)NCCCCn4nc(-c5ccc6oc(N)nc6c5)c5c(N)ncnc54)nn3)[C@H](OC)C2)CC(=O)[C@H](C)/C=C(\C)[C@@H](O)[C@@H](OC)C(=O)[C@H](C)C[C@H](C)/C=C/C=C/C=C/1C (stereo partly drawn) [Example 38] | 1 to 10 | 3.16 to 31.6 | 31.6 to 1000 | – | –
CO[C@H]1C[C@@H]2CC[C@@H](C)[C@@](O)(O2)C(=O)C(=O)N2CCCC[C@H]2C(=O)O[C@H]([C@H](C)C[C@@H]2CC[C@@H](OCc3cccc(-c4cnc(N5CCN(S(=O)(=O)CCc6cn(CCOCCOCCC(=O)NCCCCn7nc(-c8ccc9oc(N)nc9c8)c8c(N)ncnc87)nn6)CC5)nc4)c3)[C@H](OC)C2)CC(=O)[C@H](C)/C=C(\C)[C@@H](O)[C@@H](OC)C(=O)[C@H](C)C[C@H](C)/C=C/C=C/C=C/1C [Example 28] | < 1 | < 3.16 | 3.16 to 31.6 | – | –
CO[C@H]1C[C@@H]2CC[C@@H](C)[C@@](O)(O2)C(=O)C(=O)N2CCCC[C@H]2C(=O)O[C@H]([C@H](C)C[C@@H]2CC[C@@H](OCCCCc3cn(CCOCCOCCOCCOCCOCCOCCOCCOCCC(=O)N4CCN(c5cc(-n6nc(-c7ccc8oc(N)nc8c7)c7c(N)ncnc76)ncn5)CC4)nn3)[C@H](OC)C2)CC(=O)[C@H](C)/C=C(\C)[C@@H](O)[C@@H](OC)C(=O)[C@H](C)C[C@H](C)/C=C/C=C/C=C/1C [Example 95] | < 1 | < 3.16 | 3.16 to 31.6 | – | –
